Laboratory results as given in patent publication US4172145A, “Benzo(b)furylacetic acid derivatives to reduce inflammation” (priority 1975, dated 1979).
Read-outs that look alike come from different tables or passages of the source.

Assays:
[1] = test system: carrageenin-induced edema on the hind paw of rats; experiment: Anti-edema effect on carrageenin-induced edema on the hind paw of rats (Carrageenin Edema Method); format: in vivo, rat (male Wistar strain); settings: rat, oral, 3 hours after carrageenin
Protocol: The anti-edema effect was determined according to the method of Yamazaki et al [Yamazaki, H., et al; Folia Pharmacologica Japonica, 63, 302 (1967)].
In this test, a group consisting of five rats (male Wistar strain: weight 100-120 g) was used for the test and control groups. The compounds shown in Table 2 were administered orally to the rats of the test group. After one hour, 0.1 ml of a 1% carrageenin solution (phlogistic agent) was further administered to each rat by subcutaneous injection in one hind paw. To each rat of the control group, 0.1 ml of a 1% carrageenin solution was also administered in a similar manner to that for test rats. 1, 3 and 5 hours after administration of the phlogistic agent, the swelling ratio was calculated by means of the following equation: […]
Test group [formula] in which b: swelling ratio
B: volume of a hind paw without administration of phlogistic agent
B': volume of a hind paw administered with phlogistic agent
Control group [formula] in which a: swelling ratio
A: volume of a hind paw without administration of phlogistic agent
A': volume of a hind paw administered with phlogistic agent
The anti-edema effect was expressed as the suppression ratio of the edema in comparison with the control group to which the test compound had not been administered. The suppression ratio of the edema was determined 3 hours after administration of the phlogistic agent and was calculated by means of the following equation: [formula] in which a and b are as hereinbefore defined.

[2] = test system: acetic acid-induced writhing reactions in mice; experiment: Analgesic activity in mice (AcOH Writhing Method); format: in vivo, mouse (male dd-strain); settings: mouse, oral; for ED50: read-out: Analgesic Effect (AcOH Writhing Method), ED50
Protocol: In this test, three groups, each consisting of 10 mice (male dd-strain; weight: 19-21 g) were used. The compounds shown in Table 3 were administered orally to the test mice. One hour after the administration, the mice were treated with 0.1 ml/10 g of 0.7% acetic acid solution in physiological saline by intraperitoneal injection according to the method of Koster et al [Koster, R., et al; Fed. Proc., 18, 412 (1959)]. Ten minutes after the treatment, the number of writhing reactions occurring in the mice was counted.

[3] = test system: pain threshold of inflamed and not inflamed paws of rats; experiment: Analgesic activity in rats (Randall-Selitto Method); format: in vivo, rat (male Wister strain); settings: Rattus norvegicus, po, read-out: Analgesic Coefficient; for change in vivo at 150 mg/kg: P.O. 150 mg/kg
Protocol: A group consisting of 6-7 rats (male Wister strain; weight: 100-120 g) was used for the test and control groups in this test. Each rat of both groups was treated with 0.1 ml of a 1% carrageenin solution as phlogistic agent by subcutaneous injection in one hind paw. 3 hours after the administration, pressure was applied to the treated paw of each rat by means of a pressing device (manufactured by Ugobasile S. A., Italy). The threshold of pain induced by press was measured with reference to the shriek and struggle according to the method of Randall and Selitto [Randall, L. O. and Selitto, J. J.; Arch, Int. Pharmocodyn., 111, 409 (1957)]. From each group 5 rats having a good response reaction, i.e. the pain threshold was not more than 70 g, were respectively selected. […] 1, 2 and 3 hours after administration, pressure was again applied to both the inflamed and not inflamed paws of the test rats and the pain threshold was measured. On the other hand, without the administration of the active compound, the pressure was applied to both the inflamed and not inflamed paws of the selected 5 rats of the control group and the pain threshold was measured. The inflamed paws of the test and control groups were compared with each other. Also the not inflamed paws of the both groups were compared with each other.
The analgesic coefficient was calculated by means of the following equation, and the larger analgesic coefficient the better analgesic activity. [formula] in which X: analgesic coefficient (%)
P1 : threshold (g) of the test rats administered with active compounds
P2 : threshold (g) of the control rats without administration of active compound

[4] = in vivo; settings: rat, po
Protocol: A test group consisting of 10-15 rats (male Wistar strain; weight: 180-220 g) was used in this test. Each rat was fasted for 20 hours, but water was allowed ad libitum. The compounds shown in Table 5 were administered orally. After a 20-hour interval during which the rats were not fed but were allowed water, each rat was administered under ether anesthesia with 0.5 ml per 100 g body weight of a 5% solution of pontamine sky blue 6BX in saline (pH 7.2--adjusted with 0.5 N HCl) by intravenous injection. 15 minutes after administration each rat was killed. The stomach was removed and maintained in a 1% formalin solution. After about 2 hours, the stomach was opened along the greater curvature and the length of lesions (dark blue areas against pale blue background) in the glandular portion was measured under a dissecting microscope (10×) provided with a square grid. The sum of the lengths (mm) of lesions was used as ulcer index.

[5] = in vivo; settings: oral, observed one week, Litchfield and Wilcoxon
Protocol: In this test, five groups, each consisting of 5 mice (male dd strain; weight: 19-21 g) and 5 rats (male Wistar strain; weight: 100-120 g) were used. […] The LD50 was calculated according to the method of Litchfield and Wilcoxon [Journal of Pharmacol. and Exper. Therap.

[6] = read-out: Anti-edema Effect, Suppression Ratio
[7] = 1 h before acetic acid, read-out: Analgesic Effect (AcOH Writhing Method), Suppression Ratio
[8] = mouse, read-out: Acute Toxicity (P.O.), LD50, Mouse
[9] = rat, read-out: Acute Toxicity (P.O.), LD50, Rat

Row | SMILES | inhibition in vivo at 150 mg/kg [1, 6] | inhibition in vivo at 150 mg/kg [2, 7] | change in vivo at 150 mg/kg ([3]; 1 h, inflamed paw, 1 hr.) | change in vivo at 150 mg/kg ([3]; 1 h, not inflamed paw, 1 hr.) | change in vivo at 150 mg/kg ([3]; 2 h, inflamed paw, 2 hr.) | change in vivo at 150 mg/kg ([3]; 2 h, not inflamed paw, 2 hr.) | change in vivo at 150 mg/kg ([3]; 3 h, inflamed paw, 3 hr.) | change in vivo at 150 mg/kg ([3]; 3 h, not inflamed paw, 3 hr.) | TD50 at 20 h [4] | LD50 at 168 h [5, 8] | LD50 at 168 h [5, 9] | inhibition in vivo at 75 mg/kg [1, 6] | inhibition in vivo at 300 mg/kg [1, 6] | ED50 [1] | inhibition in vivo at 300 mg/kg [2, 7] | ED50 [2] | further results
1 | CC(C)Cc1ccc(C(C)C(=O)O)cc1 (stereo not shown) [Ibuprofen, reference compound] | 45.3% | 57.2% | 20.9% | 0.5% | 28.8% | 5.5% | 23.3% | 4.2% | 46 mg/kg |  |  |  |  |  |  |  | 
2 | CCCCC1C(=O)N(c2ccccc2)N(c2ccccc2)C1=O [Phenylbutazone, reference compound] |  |  |  |  |  |  |  |  | 76 mg/kg |  |  |  |  |  |  |  | inhibition in vivo at 100 mg/kg ([1]; 100 mg/kg (footnote *; printed in 75 mg/kg column), read-out: Anti-edema Effect, Suppression Ratio): 42.6%; inhibition in vivo at 200 mg/kg ([1]; 200 mg/kg (footnote **; printed in 150 mg/kg column), read-out: Anti-edema Effect, Suppression Ratio): 53.5%; inhibition in vivo at 100 mg/kg ([2]; 100 mg/kg (footnote *; printed in 75 mg/kg column), read-out: Analgesic Effect (AcOH Writhing Method), Suppression Ratio): 20.8%; inhibition in vivo at 200 mg/kg ([2]; 200 mg/kg (footnote **; printed in 150 mg/kg column), read-out: Analgesic Effect (AcOH Writhing Method), Suppression Ratio): 28.2%; change in vivo at 100 mg/kg ([3]; 1 h, P.O. 100 mg/kg (** on upper line only), not inflamed paw, 1 hr.): 3.8%; change in vivo at 100 mg/kg ([3]; 1 h, P.O. 100 mg/kg, inflamed paw, 1 hr.): 20.7%; change in vivo at 100 mg/kg ([3]; 2 h, P.O. 100 mg/kg (** on upper line only), not inflamed paw, 2 hr.): 5.4%; change in vivo at 100 mg/kg ([3]; 2 h, P.O. 100 mg/kg, inflamed paw, 2 hr.): 23.2%; change in vivo at 100 mg/kg ([3]; 3 h, P.O. 100 mg/kg (** on upper line only), not inflamed paw, 3 hr.): 2%; change in vivo at 100 mg/kg ([3]; 3 h, P.O. 100 mg/kg, inflamed paw, 3 hr.): 27.7%
3 | Cc1c(CC(=O)O)oc2ccccc12 [Test Compound 1, 3-methyl-2-benzo(b)furylacetic acid] | 41.2% | 42.9% | 13.8% | 0.4% | 5.9% | 1.7% | 4.2% | 0% |  | > 1100 mg/kg | > 300 mg/kg | 25.3% | 54.2% | 240 mg/kg | 70.9% | 170 mg/kg | inhibition in vivo at 75 mg/kg ([2]; 75 mg/kg, 1 h before acetic acid, read-out: Analgesic Effect (AcOH Writhing Method), Suppression Ratio): 21.7%
4 | Cc1c(CC(=O)O)oc2ccc(Cl)cc12 [Test Compound 2, 5-chloro-3-methyl-2-benzo(b)furylacetic acid] | 63.3% | 35.9% | 25.1% | 0.5% | 17.8% | 1.3% | 16.3% | 2.4% | 230 mg/kg | 800 mg/kg | 425 mg/kg | 45.7% | 74.2% | 980 mg/kg | 68.8% | 190 mg/kg | 
5 | COc1ccc2oc(CC(=O)O)c(C)c2c1 [Test Compound 3, 5-methoxy-3-methyl-2-benzo(b)furylacetic acid] | 60.8% | 20.8% | 24.1% | 1.9% | 5.2% | 0% | 0% | 0% | > 300 mg/kg | 1110 mg/kg | > 1000 mg/kg | 34.5% | 73.1% | 110 mg/kg | 53.6% | 280 mg/kg | 
6 | Cc1c(CC(=O)O)oc2ccc(C(C)(C)C)cc12 [Test Compound 6, 5-tert-butyl-3-methyl-2-benzo(b)furylacetic acid] | 39.9% | 23.7% | 19.5% | 6% | 17.8% | 0.8% | 14.4% | 1.3% |  | > 1000 mg/kg | > 300 mg/kg |  |  |  |  |  | 
7 | Cc1c(CC(=O)O)oc2ccc(-c3ccccc3)cc12 [Test Compound 7, 5-phenyl-3-methyl-2-benzo(b)furylacetic acid] | 63.9% | 20.9% | 37.2% | 8% | 23.3% | 2.4% | 11.3% | 4.7% |  | 500 to 1000 mg/kg | > 300 mg/kg | 52.7% | 73.3% | 70 mg/kg | 77.6% |  | 
8 | Cc1c(CC(=O)O)oc2ccc(Cc3ccccc3)cc12 [Test Compound 8, 5-benzyl-3-methyl-2-benzo(b)furylacetic acid] | 31.1% | 30.5% | 23.1% | 1.7% | 24.7% | 0.7% | 29.5% | 6.1% |  | 500 to 1000 mg/kg | > 300 mg/kg |  |  |  | 55.6% |  | 
9 | Cc1c(CC(=O)O)oc2ccc(C3CCCCC3)cc12 [Test Compound 9, 5-cyclohexyl-3-methyl-2-benzo(b)furylacetic acid] | 28% |  | 0% | 0% | 2% | 0% | 32% | 17.2% |  | > 1000 mg/kg | > 150 mg/kg |  |  |  |  |  | 
